Species: Rattus norvegicus
Test: DrugMatrix - Regimen: Daily Repeat
Format: toxicity, organism-based, Sprague-Dawley
Design: regimen Daily Repeat, gender Male, age 6-8 weeks
Conditions: in vivo, po, route oral GAVAGE, vehicle 100 % WATER; for ABSOLUTE BASOPHIL / ABSOLUTE EOSINOPHIL / ABSOLUTE LYMPHOCYTE / ABSOLUTE MONOCYTE / ABSOLUTE SEGMENTED NEUTROPHIL / BASOPHIL / EOSINOPHIL / ERYTHROCYTE COUNT / HEMATOCRIT / HEMOGLOBIN / LEUKOCYTE COUNT / LYMPHOCYTE / MEAN CORPUSCULAR HEMOGLOBIN / MEAN CORPUSCULAR HEMOGLOBIN CONCENTRATION / MEAN CORPUSCULAR VOLUME / MONOCYTE / NEUTROPHIL / NUCLEATED RED BLOOD CELLS / PLATELET COUNT: tissue Blood; for ALANINE AMINOTRANSFERASE / ALBUMIN / ALKALINE PHOSPHATASE / ASPARTATE AMINOTRANSFERASE / BLOOD UREA NITROGEN / CARBON DIOXIDE / CHLORIDE / CHOLESTEROL / CREATINE PHOSPHOKINASE / CREATININE / GLUCOSE / LACTATE DEHYDROGENASE / LIPASE / PHOSPHORUS / POTASSIUM / SODIUM / TOTAL BILIRUBIN / TOTAL PROTEIN / URIC ACID: tissue Plasma
[1] = 1 mg/kg, 120 h, dose level Low, time 5 day
[2] = 175 mg/kg, 72 h, dose level High, time 3 day
[3] = 175 mg/kg, 120 h, dose level High, time 5 day

Structure (SMILES): CN1C2CCCC1CC(NC(=O)c1nn(C)c3ccccc13)C2 (centres undefined) [GRANISETRON]
- ABSOLUTE BASOPHIL [1]: 0 CELLS/uL
- ABSOLUTE EOSINOPHIL [1]: 0 CELLS/uL
- ABSOLUTE LYMPHOCYTE [1]: 8153 CELLS/uL
- ABSOLUTE MONOCYTE [1]: 97.67 CELLS/uL
- ABSOLUTE SEGMENTED NEUTROPHIL [1]: 549.33 CELLS/uL
- BASOPHIL [1]: 0%
- EOSINOPHIL [1]: 0%
- ERYTHROCYTE COUNT [1]: 5.09 x10E6/uL
- HEMATOCRIT [1]: 31.63%
- HEMOGLOBIN [1]: 12.5 G/DL
- LEUKOCYTE COUNT [1]: 8.8 x10E3/uL
- LYMPHOCYTE [1]: 92.67%
- MEAN CORPUSCULAR HEMOGLOBIN [1]: 24.53 pg
- MEAN CORPUSCULAR HEMOGLOBIN CONCENTRATION [1]: 39.6 G/DL
- MEAN CORPUSCULAR VOLUME [1]: 62.03 fL
- MONOCYTE [1]: 1%
- NEUTROPHIL [1]: 6.33%
- NUCLEATED RED BLOOD CELLS [1]: 0.67 /100WBC
- PLATELET COUNT [1]: 832 x10E3/uL
- ALANINE AMINOTRANSFERASE [1]: 51 u/L
- ALBUMIN [1]: 4.2 G/DL
- ALKALINE PHOSPHATASE [1]: 374 u/L
- ASPARTATE AMINOTRANSFERASE [1]: 84.33 u/L
- BLOOD UREA NITROGEN [1]: 16 mg/dL
- CARBON DIOXIDE [1]: 31 mmol/L
- CHLORIDE [1]: 101.67 MEQ/L
- CHOLESTEROL [1]: 74.33 mg/dL
- CREATINE PHOSPHOKINASE [1]: 215.67 u/L
- CREATININE [1]: 0.16 mg/dL
- GLUCOSE [1]: 149.33 mg/dL
- LACTATE DEHYDROGENASE [1]: 154 u/L
- LIPASE [1]: 9 u/L
- PHOSPHORUS [1]: 10.23 mg/dL
- POTASSIUM [1]: 5.82 MEQ/L
- SODIUM [1]: 145 MEQ/L
- TOTAL BILIRUBIN [1]: 0.23 mg/dL
- TOTAL PROTEIN [1]: 6.23 G/DL
- URIC ACID [1]: 0.7 mg/dL
- ABSOLUTE BASOPHIL [2]: 0 CELLS/uL
- ABSOLUTE EOSINOPHIL [2]: 0 CELLS/uL
- ABSOLUTE LYMPHOCYTE [2]: 10622.67 CELLS/uL
- ABSOLUTE MONOCYTE [2]: 19.67 CELLS/uL
- ABSOLUTE SEGMENTED NEUTROPHIL [2]: 557.67 CELLS/uL
- BASOPHIL [2]: 0%
- EOSINOPHIL [2]: 0%
- ERYTHROCYTE COUNT [2]: 5.65 x10E6/uL
- HEMATOCRIT [2]: 35.33%
- HEMOGLOBIN [2]: 13.77 G/DL
- LEUKOCYTE COUNT [2]: 11.2 x10E3/uL
- LYMPHOCYTE [2]: 93.67%
- MEAN CORPUSCULAR HEMOGLOBIN [2]: 24.43 pg
- MEAN CORPUSCULAR HEMOGLOBIN CONCENTRATION [2]: 38.93 G/DL
- MEAN CORPUSCULAR VOLUME [2]: 62.63 fL
- MONOCYTE [2]: 0.33%
- NEUTROPHIL [2]: 6%
- NUCLEATED RED BLOOD CELLS [2]: 0 /100WBC
- PLATELET COUNT [2]: 1057.67 x10E3/uL
- ALANINE AMINOTRANSFERASE [2]: 72.67 u/L
- ALBUMIN [2]: 4 G/DL
- ALKALINE PHOSPHATASE [2]: 502.33 u/L
- ASPARTATE AMINOTRANSFERASE [2]: 95 u/L
- BLOOD UREA NITROGEN [2]: 13 mg/dL
- CARBON DIOXIDE [2]: 33 mmol/L
- CHLORIDE [2]: 100 MEQ/L
- CHOLESTEROL [2]: 75.67 mg/dL
- CREATINE PHOSPHOKINASE [2]: 557.67 u/L
- CREATININE [2]: 0.12 mg/dL
- GLUCOSE [2]: 149.33 mg/dL
- LACTATE DEHYDROGENASE [2]: 186 u/L
- LIPASE [2]: 10 u/L
- PHOSPHORUS [2]: 11.47 mg/dL
- POTASSIUM [2]: 5.72 MEQ/L
- SODIUM [2]: 145.1 MEQ/L
- TOTAL BILIRUBIN [2]: 0.17 mg/dL
- TOTAL PROTEIN [2]: 5.83 G/DL
- URIC ACID [2]: 0.5 mg/dL
- ABSOLUTE BASOPHIL [3]: 0 CELLS/uL
- ABSOLUTE EOSINOPHIL [3]: 0 CELLS/uL
- ABSOLUTE LYMPHOCYTE [3]: 7981.33 CELLS/uL
- ABSOLUTE MONOCYTE [3]: 176.67 CELLS/uL
- ABSOLUTE SEGMENTED NEUTROPHIL [3]: 675.33 CELLS/uL
- BASOPHIL [3]: 0%
- EOSINOPHIL [3]: 0%
- ERYTHROCYTE COUNT [3]: 5.68 x10E6/uL
- HEMATOCRIT [3]: 35.93%
- HEMOGLOBIN [3]: 13.87 G/DL
- LEUKOCYTE COUNT [3]: 8.83 x10E3/uL
- LYMPHOCYTE [3]: 90%
- MEAN CORPUSCULAR HEMOGLOBIN [3]: 24.47 pg
- MEAN CORPUSCULAR HEMOGLOBIN CONCENTRATION [3]: 38.67 G/DL
- MEAN CORPUSCULAR VOLUME [3]: 63.37 fL
- MONOCYTE [3]: 2%
- NEUTROPHIL [3]: 8%
- NUCLEATED RED BLOOD CELLS [3]: 0 /100WBC
- PLATELET COUNT [3]: 1308.33 x10E3/uL
- ALANINE AMINOTRANSFERASE [3]: 86.67 u/L
- ALBUMIN [3]: 4.03 G/DL
- ALKALINE PHOSPHATASE [3]: 415.33 u/L
- ASPARTATE AMINOTRANSFERASE [3]: 102 u/L
- BLOOD UREA NITROGEN [3]: 16.67 mg/dL
- CARBON DIOXIDE [3]: 31.33 mmol/L
- CHLORIDE [3]: 100.33 MEQ/L
- CHOLESTEROL [3]: 67.33 mg/dL
- CREATINE PHOSPHOKINASE [3]: 224.33 u/L
- CREATININE [3]: 0.19 mg/dL
- GLUCOSE [3]: 146.33 mg/dL
- LACTATE DEHYDROGENASE [3]: 136.33 u/L
- LIPASE [3]: 11.67 u/L
- PHOSPHORUS [3]: 11.97 mg/dL
- POTASSIUM [3]: 5.51 MEQ/L
- SODIUM [3]: 146.57 MEQ/L
- TOTAL BILIRUBIN [3]: 0.17 mg/dL
- TOTAL PROTEIN [3]: 5.6 G/DL
- URIC ACID [3]: 0.57 mg/dL
